Test results reported in ChEMBL document CHEMBL3885861, “Open TG-GATES”.

Species on record: Rattus norvegicus
Assay: Open TG-GATES - Regimen: Daily Repeat
Format: toxicity, organism-based, Sprague-Dawley
Set-up: regimen Daily Repeat, gender Male, age 6 weeks
Conditions: in vivo, po, 0 mg/kg, route gavage, dose level Control; for APTT / Bas / Eos / Hb / Ht / Lym / MCH / MCHC / MCV / Mono / PT / Plat / RBC / Ret / WBC / Neu: tissue Blood; for KIDNEY_L / KIDNEY_R / KIDNEY_TOTAL: tissue Kidney; for LIVER: tissue Liver
[1] = 72 h, tissue Plasma, time 3 day
[2] = […], tissue Plasma, time 14 day
[3] = […], tissue Plasma, time 28 day

C[C@H](CS)C(=O)N1CCC[C@H]1C(=O)O [CAPTOPRIL]
TERMINAL_BW (72 h, time 3 day): 245.5 g | APTT (72 h, time 3 day): 16.1 s | Bas (72 h, time 3 day): 0% | Eos (72 h, time 3 day): 1.2% | Hb (72 h, time 3 day): 13.4 g/dL | Ht (72 h, time 3 day): 41% | Lym (72 h, time 3 day): 82.8% | MCH (72 h, time 3 day): 21.5 pg | MCHC (72 h, time 3 day): 32.7% | MCV (72 h, time 3 day): 65.6 fL | Mono (72 h, time 3 day): 5.8% | PT (72 h, time 3 day): 11.3 s | Plat (72 h, time 3 day): 117.3 x10_4/uL | RBC (72 h, time 3 day): 625 x10_4/ul | Ret (72 h, time 3 day): 7.6% | WBC (72 h, time 3 day): 119.1 x10_2/uL | KIDNEY_L (72 h, time 3 day): 1.1 g | KIDNEY_R (72 h, time 3 day): 1.1 g | KIDNEY_TOTAL (72 h, time 3 day): 2.2 g | LIVER (72 h, time 3 day): 11.9 g | ALT [1]: 40.4 IU/L | AST [1]: 64.8 IU/L | BUN [1]: 17.6 mg/dL | CRE [1]: 0.5 mg/dL | Ca [1]: 11.3 mg/dL | DBIL [1]: 0.016 mg/dL | GLC [1]: 197.6 mg/dL | IP [1]: 8.9 mg/dL | K [1]: 4.8 meq/L | LDH [1]: 86.2 IU/L | Na [1]: 139 meq/L | PL [1]: 142.4 mg/dL | RALB [1]: 3.8 g/dL | TBIL [1]: 0.4 mg/dL | TC [1]: 70.6 mg/dL | TP [1]: 5.7 g/dL | gamma-GTP [1]: 1.2 IU/L | TERMINAL_BW ([…], time 7 day): 274 g | TERMINAL_BW ([…], time 14 day): 333.4 g | TERMINAL_BW ([…], time 28 day): 402.1 g | APTT ([…], time 7 day): 16.6 s | Bas ([…], time 7 day): 0% | Eos ([…], time 7 day): 0.8% | Hb ([…], time 7 day): 13.8 g/dL | Ht ([…], time 7 day): 41.7% | Lym ([…], time 7 day): 83% | MCH ([…], time 7 day): 21.1 pg | MCHC ([…], time 7 day): 33.1% | MCV ([…], time 7 day): 63.9 fL | Mono ([…], time 7 day): 4% | Neu ([…], time 7 day): 12.4% | Plat ([…], time 7 day): 113.7 x10_4/uL | RBC ([…], time 7 day): 653.4 x10_4/ul | Ret ([…], time 7 day): 6.1% | WBC ([…], time 7 day): 144.9 x10_2/uL | APTT ([…], time 14 day): 16.9 s | Bas ([…], time 14 day): 0% | Eos ([…], time 14 day): 1% | Hb ([…], time 14 day): 14.3 g/dL | Ht ([…], time 14 day): 43.1% | Lym ([…], time 14 day): 80.8% | MCH ([…], time 14 day): 20.5 pg | MCHC ([…], time 14 day): 33.1% | MCV ([…], time 14 day): 62.1 fL | Mono ([…], time 14 day): 6% | Neu ([…], time 14 day): 12.4% | PT ([…], time 14 day): 11.4 s | Plat ([…], time 14 day): 112.4 x10_4/uL | RBC ([…], time 14 day): 694.8 x10_4/ul | Ret ([…], time 14 day): 4.1% | WBC ([…], time 14 day): 122.3 x10_2/uL | APTT ([…], time 28 day): 16.7 s | Bas ([…], time 28 day): 0% | Eos ([…], time 28 day): 1% | Hb ([…], time 28 day): 14.5 g/dL | Ht ([…], time 28 day): 43.7% | Lym ([…], time 28 day): 86.8% | MCH ([…], time 28 day): 19 pg | MCHC ([…], time 28 day): 33.1% | MCV ([…], time 28 day): 57.4 fL | Mono ([…], time 28 day): 4.4% | Neu ([…], time 28 day): 7.8% | PT ([…], time 28 day): 11.9 s | RBC ([…], time 28 day): 761.8 x10_4/ul | Ret ([…], time 28 day): 2.5% | WBC ([…], time 28 day): 154.2 x10_2/uL | KIDNEY_L ([…], time 7 day): 1.1 g | KIDNEY_R ([…], time 7 day): 1.1 g | KIDNEY_TOTAL ([…], time 7 day): 2.3 g | KIDNEY_L ([…], time 14 day): 1.3 g | KIDNEY_R ([…], time 14 day): 1.3 g | KIDNEY_TOTAL ([…], time 14 day): 2.6 g | KIDNEY_L ([…], time 28 day): 1.4 g | KIDNEY_R ([…], time 28 day): 1.4 g | KIDNEY_TOTAL ([…], time 28 day): 2.9 g | LIVER ([…], time 7 day): 13 g | LIVER ([…], time 14 day): 15.7 g | LIVER ([…], time 28 day): 17 g | ALT ([…], tissue Plasma, time 7 day): 37.8 IU/L | AST ([…], tissue Plasma, time 7 day): 62 IU/L | BUN ([…], tissue Plasma, time 7 day): 18.8 mg/dL | CRE ([…], tissue Plasma, time 7 day): 0.6 mg/dL | DBIL ([…], tissue Plasma, time 7 day): 0.002 mg/dL | GLC ([…], tissue Plasma, time 7 day): 198 mg/dL | IP ([…], tissue Plasma, time 7 day): 8.1 mg/dL | K ([…], tissue Plasma, time 7 day): 4.9 meq/L | LDH ([…], tissue Plasma, time 7 day): 72.4 IU/L | Na ([…], tissue Plasma, time 7 day): 141.4 meq/L | PL ([…], tissue Plasma, time 7 day): 132.2 mg/dL | RALB ([…], tissue Plasma, time 7 day): 3.8 g/dL | TBIL ([…], tissue Plasma, time 7 day): 0.3 mg/dL | TC ([…], tissue Plasma, time 7 day): 65.2 mg/dL | TG ([…], tissue Plasma, time 7 day): 79.8 mg/dL | TP ([…], tissue Plasma, time 7 day): 5.8 g/dL | gamma-GTP ([…], tissue Plasma, time 7 day): 1.2 IU/L | ALP [2]: 916.4 IU/L | ALT [2]: 32.6 IU/L | AST [2]: 60.2 IU/L | BUN [2]: 17.8 mg/dL | CRE [2]: 0.5 mg/dL | DBIL [2]: 0 mg/dL | GLC [2]: 202.6 mg/dL | IP [2]: 8.1 mg/dL | K [2]: 4.5 meq/L | LDH [2]: 76.8 IU/L | Na [2]: 139.4 meq/L | PL [2]: 169.6 mg/dL | RALB [2]: 3.9 g/dL | TBIL [2]: 0.3 mg/dL | TC [2]: 85.4 mg/dL | TG [2]: 152 mg/dL | TP [2]: 6 g/dL | gamma-GTP [2]: 1.2 IU/L | ALP [3]: 633 IU/L | ALT [3]: 31.4 IU/L | AST [3]: 58 IU/L | BUN [3]: 20.4 mg/dL | CRE [3]: 0.6 mg/dL | DBIL [3]: 0.026 mg/dL | GLC [3]: 213.6 mg/dL | IP [3]: 7.7 mg/dL | K [3]: 4.3 meq/L | LDH [3]: 110.2 IU/L | Na [3]: 139.8 meq/L | PL [3]: 150 mg/dL | RALB [3]: 3.9 g/dL | TBIL [3]: 0.3 mg/dL | TC [3]: 69.2 mg/dL | TG [3]: 142.4 mg/dL | TP [3]: 6.1 g/dL | gamma-GTP [3]: 0.6 IU/L
